Experimental data: patent US8664199B2, “Method and system for reversal of interactions between hydrophobically modified biopolymers and vesicles or cell membranes” (University of Maryland, College Park, priority 2010, dated 2014)
Entries after “also recorded” stand apart in the source; their conditions may differ.

Experiments:
human heparinized blood [1] = assay: Dynamic rheology of hm-chitosan blood gel; assay type: cell-based; conditions: 3 wt % α-CD, 0.25 wt % hm-chitosan blood gel, 37° C.
Description: (§1) 5 human subjects volunteered to have 20 mL of blood drawn by a registered nurse at the UMD School of Medicine. Subjects were healthy adults ranging age from 20 to 40 years of age (4 males, 1 female). 10 mL intervals of blood were drawn into Becton Dickinson Vacutainers® containing 143 USP units of sodium heparin. The protocol was approved by the Institutional Research Board (IRB) at UMD.
(§2) Steady and dynamic rheological experiments were performed on a […] AR2000 stress-controlled rheometer. A cone-and-plate geometry of 40 mm diameter and 4° cone angle was used and samples were run at the physiological temperature of 37° C. Dynamic frequency spectra were obtained in the linear viscoelastic regime of the samples, as determined from dynamic strain sweep experiments.

[2] = Dynamic rheology of hm-chitosan + vesicle mixtures; assay type: physicochemical; conditions: 28.6 mM cyclodextrin; hm-chitosan 0.238 wt %, vesicles 0.952 wt %
Excerpt: (§3) The surfactant system employed was a mixture of the cationic surfactant, cetyl trimethylammonium tosylate (CTAT), and the anionic surfactant, sodium dodecyl benzene sulfonate (SDBS). The surfactants were purchased from Aldrich, and all solutions were made using distilled-deionized water. The phase diagram for CTAT/SDBS mixtures has been reported previously.^31 To form vesicles, CTAT and SDBS were mixed at a weight ratio of 70/30, respectively, at a combined 2 wt % concentration in water. The mixture was stirred overnight to ensure complete dissolution and equilibration of the vesicles prior to experiments.
as §2
However, at practical time scales, the hm-chitosan+vesicle+α-CD mixture behaves as a freely flowing liquid.

[3] = general statement, no test described; cited from earlier work
[4] = Steady shear rheology of hm-chitosan + vesicle mixtures; assay type: physicochemical; conditions: for zero-shear viscosity: hm-chitosan (benz-C18, 1.5% modified) 0.238 wt %, 37° C.; for zero-shear viscosity / viscosity drop on addition of cyclodextrin: vesicles 0.952 wt %; for viscosity drop on addition of cyclodextrin: 28.6 mM vs 0 mM cyclodextrin, hm-chitosan 0.238 wt %; for reversal of gelation of vesicles by hm-chitosan: hm-chitosan and vesicle mixtures
Excerpt: as §3, §2
The concentrations of hm-chitosan and vesicles were held constant at 0.238 wt % and 0.952 wt %, respectively, in both samples. One sample contained 0 mM α-CD (open diamonds) and the other contained 28.6 mM α-CD (open circles).

human heparinized blood [5] = assay: Visual observation / vial inversion of blood gelled by hm-chitosan; assay type: cell-based; conditions: 3 wt % α-CD added to blood gel formed with 0.25 wt % hm-chitosan
Description: as §1
FIG. 3(a) is a photograph of human heparinized blood gelled by 0.25 wt % hm-chitosan. […] Note that this sample […] hold its own weight upon vial inversion.

Compound: OC[C@H]1O[C@@H]2O[C@H]3[C@H](O)[C@@H](O)[C@@H](O[C@H]4[C@H](O)[C@@H](O)[C@@H](O[C@H]5[C@H](O)[C@@H](O)[C@@H](O[C@H]6[C@H](O)[C@@H](O)[C@@H](O[C@H]7[C@H](O)[C@@H](O)[C@@H](O[C@H]1[C@H](O)[C@H]2O)O[C@@H]7CO)O[C@@H]6CO)O[C@@H]5CO)O[C@@H]4CO)O[C@@H]3CO [α-CD, α-cyclodextrin]
- dynamic rheology response (G′, G″) of blood gel after supramolecule (human heparinized blood [1]): liquid-like with G″>G′ over the frequency range
- dynamic rheology behaviour as ω→0 (long time scales) [2]: G′ and G″ are observed to overlap, indicating the onset of gelation over long time scales
- dynamic rheology response [2]: viscous liquid
- solubility (solvent) [3]: soluble in water
- zero-shear viscosity ([4]; 28.6 mM cyclodextrin): ~0.01 Pa·s
- viscosity drop on addition of cyclodextrin [4]: million-fold
- reversal of gelation of vesicles by hm-chitosan [4]: reverse the gelation of vesicles by hm-chitosan
- reversal of blood gelation (visual observation) (human heparinized blood [5]): quickly reverse the gelling and convert the sample into a thin, flowing liquid; also recorded: instantly reverse the gelling and convert the sample into a thin, flowing liquid; also recorded: disruption of the gel into a freely flowing viscous liquid

Compound: OC[C@H]1O[C@@H]2O[C@H]3[C@H](O)[C@@H](O)[C@@H](O[C@H]4[C@H](O)[C@@H](O)[C@@H](O[C@H]5[C@H](O)[C@@H](O)[C@@H](O[C@H]6[C@H](O)[C@@H](O)[C@@H](O[C@H]7[C@H](O)[C@@H](O)[C@@H](O[C@H]8[C@H](O)[C@@H](O)[C@@H](O[C@H]1[C@H](O)[C@H]2O)O[C@@H]8CO)O[C@@H]7CO)O[C@@H]6CO)O[C@@H]5CO)O[C@@H]4CO)O[C@@H]3CO [β-CD, β-cyclodextrin]
- solubility (solvent) [3]: more soluble in ethyl alcohol

Compound: OC[C@H]1O[C@@H]2O[C@H]3[C@H](O)[C@@H](O)[C@@H](O[C@H]4[C@H](O)[C@@H](O)[C@@H](O[C@H]5[C@H](O)[C@@H](O)[C@@H](O[C@H]6[C@H](O)[C@@H](O)[C@@H](O[C@H]7[C@H](O)[C@@H](O)[C@@H](O[C@H]8[C@H](O)[C@@H](O)[C@@H](O[C@H]9[C@H](O)[C@@H](O)[C@@H](O[C@H]1[C@H](O)[C@H]2O)O[C@@H]9CO)O[C@@H]8CO)O[C@@H]7CO)O[C@@H]6CO)O[C@@H]5CO)O[C@@H]4CO)O[C@@H]3CO [γ-CD, γ-cyclodextrin]
- dynamic rheology behaviour as ω→0 (long time scales) [2]: G′ and G″ are not observed to overlap, indicating that the sample does not become more gel-like as t→∞
- dynamic rheology response [2]: viscous liquid
- solubility (solvent) [3]: soluble in water
- zero-shear viscosity ([4]; 0 mM cyclodextrin, in Pa·s): ~10^1
- viscosity drop relative to the drop caused by α-CD ([4]; 28.6 mM cyclodextrin): thousand-fold lower
- viscosity drop on addition of cyclodextrin [4]: thousand-fold
- reversal of gelation of vesicles by hm-chitosan [4]: reverse the gelation of vesicles by hm-chitosan
